For 91 compounds, melting point results are on record in a melting point compilation (Tetko et al.; mined from patent text by program, amines drawn as free bases though some values may be those of a salt).

Each structure is given as a SMILES string.

One may read the melting point as the temperature of the solid-liquid transition.

On to `CCOC(=O)c1cc2nc(C(F)(F)F)ccc2n1Cc1ccncc1`, for which the melting point fell in the range of 130 to 131 °C.

Regarding `COC(=O)C1=C(C)NC(C)=C(C(=O)OCCN(C)C)C1c1cccc2nonc12` (stereo unspecified), the melting point was found to be 99 °C.

In turn, `CCOC(=O)c1cccc(-c2ccc(F)c3cc(CO)sc23)c1` displayed a melting point of 89 to 90 °C.

In the case of `CCN1C(=O)Cc2cc(OCc3ccccc3C(=O)O)ccc21`, the melting point lay in the range of 180 to 181 °C.

On to `O=C(O)CCCCCCC(=NOCc1ccc(OCc2noc(-c3ccccc3)n2)cc1)c1ccccc1`, for which the melting point was in the range of 76 to 77 °C.

For the compound `O=C(Nc1ccc(F)cc1)c1ccccc1SSc1ccccc1C(=O)Nc1ccc(F)cc1`, the melting point lay within 242 to 244 °C.

Compound `COc1ccc(N2CCN(c3ccc(NC4=NCC(OC)S4)cc3)CC2)cc1` (stereo unspecified) yielded a melting point of 178 °C.

Consider `CNc1nc(Nc2ccc(Cl)c(Cl)c2)ncc1NC(=O)Oc1ccccc1`, for which the melting point was determined as 306 °C.

Compound `CCCN1C(=O)C2(CC(C)C)CC(c3ccc(N)cc3)(C2)C1=O` showed a melting point of 86.5 to 87 °C.

Take `Cc1cc(S(=O)(=O)c2ccc([N+](=O)[O-])cc2)cc(Br)n1`: the melting point lay within 154 to 156 °C.

For the compound `CC(C)(CNc1ccnc2cc(Cl)ccc12)NCc1ccc(Cl)cc1Cl`, the melting point is 138 to 139 °C.

Compound `CC(c1ccnc(C#N)c1)C(O)(Cn1cncn1)c1ccc(F)cc1F` (stereo unspecified) gave a melting point of 188 to 189 °C.

The compound `N=C(N)Nc1ccc(C(=O)Nc2ncc(Cl)[nH]2)cc1` displayed a melting point of 263 to 265 °C.

In the case of `Nc1c(Br)cc2c(c1Br)C(C(Cl)(Cl)Cl)OC(C(Cl)(Cl)Cl)O2` (stereo unspecified), the melting point was in the range of 158 to 159 °C.

Compound `Nc1ncc(Br)cc1Cl` yielded a melting point of 94 to 96 °C.

In the case of `N#Cc1cc(-c2ccccc2)[nH]c1Sc1ccc2ccccc2c1`, the melting point lay in the range of 93 to 94.4 °C.

The compound `CCN1CCc2ccc(Nc3ncc(Cl)c(Nc4ccccc4S(=O)(=O)NC)n3)cc2CC1` had a melting point of 175 °C.

Consider `CC(=O)COc1cc2oc(=O)cc(C)c2cc1C`, for which the melting point is 190 °C.

On to `O=C1N=CNC(=O)C1Cc1ccccc1C(F)(F)F` (stereo unspecified), for which the melting point is over 290 °C.

The compound `CCCCOc1cc(OCCCc2cn(-c3ccc(C(F)(F)F)cn3)nc2OCC)ccc1CCC(=O)O` had a melting point of 123 to 124 °C.

`COc1ccc(N2CCOCC2)c2sc(NC(=O)N3CCCOCC3)nc12` yielded a melting point of 171 to 172 °C.

In turn, `Cc1noc(-c2c(C)nc(Br)n2C)n1` registered a melting point of 89 °C.

`CCCn1nc2c(N)nc3ncccc3c2c1CC(C)(C)O`: the melting point fell in the range of 252 to 255 °C.

`N#Cc1c[nH]c2c(NS(=O)(=O)c3cccc(Cl)c3)cccc12` came in with a melting point of 204 to 205 °C.

Turning to `O=Cc1ccc(OC(F)F)c([N+](=O)[O-])c1`, the melting point lay in the range of 88 to 90 °C.

The compound `Oc1cc(O)nc(C2CC2)n1` had a melting point of over 290 °C.

`COn1cc(-c2ccccc2)c(=O)c(-c2ccccc2)c1` registered a melting point of 165 °C.

Regarding `CC(/C=C/C(=O)OC(C)(C)C)=C\c1ccc(N)cc1`, the melting point fell in the range of 99 to 101 °C.

Compound `Cc1ccnc(C(=O)c2[nH]c3cc(Cl)c(F)cc3c2CC(=O)O)c1` gave a melting point of 220 °C.

In turn, `O=C(C=CCN1CCN(CC(=O)OCc2ccccc2)CC1)Nc1cc2c(Nc3ccc(F)c(Cl)c3)ncnc2cc1OCC1CC1` had a melting point of 174 °C.

For the compound `CNC1C=CC(C(C)C)C2CNCC12` (stereo unspecified), the melting point lay in the range of 76 to 81 °C.

As to `CN1CCC(C2(O)c3sccc3CCn3ncnc32)CC1` (stereo unspecified), the melting point came to 158 °C.

As for `O=C1c2cc(Cl)ccc2OC(CCCCl)N1O` (stereo unspecified), the melting point fell in the range of 70 to 75 °C.

For `O=C(O)C1CCCCC1(O)C(=O)c1ccccc1` (stereo unspecified), the melting point is 165 to 167 °C.

Take `CN(CC#N)[C@H](COCc1cc(C(F)(F)F)cc(C(F)(F)F)c1)c1ccccc1`: the melting point was in the range of 110 to 111 °C.

Compound `CSc1nn(C(=O)NC(C)c2ccc(Cl)c(Cl)c2)c(=O)n1N` (stereo unspecified) registered a melting point of 132 °C.

With `CCc1ccc2nc(OC)nc(N)c2c1`, the melting point was 168 to 170 °C.

For `CN1CCC(c2nn(-c3ccccc3C#N)c3ccccc23)CC1`, the melting point fell in the range of 117 to 119 °C.

Consider `COc1ccc(-c2nc(-c3ccccc3Cl)sc2-c2ccc(S(C)(=O)=O)cc2)cc1`, for which the melting point lay within 172 to 174 °C.

In turn, `Cc1nc2c3c(c(C(=O)O)cc2n1C)CCC(c1ccccc1)O3` (stereo unspecified) displayed a melting point of 323 to 326 °C.

Take `O=C1Nc2ccc(Cl)cc2C2(c3ccccc3)NCCCN12` (stereo unspecified): the melting point fell in the range of 275 to 276 °C.

`O=C(NCc1ccccc1)c1cc(O)c(O)c([N+](=O)[O-])c1`: the melting point lay in the range of 185 to 189 °C.

`CN1CCN(c2ccc([N+](=O)[O-])cc2F)CC1` yielded a melting point of 68 to 70 °C.

The compound `COc1cnc(CCCOc2cccc(CN3CCCC3)c2)[nH]c1=O` yielded a melting point of 92 to 95 °C.

In turn, `COc1cc2c(NC3CCCC3)c(C#N)cnc2cc1F` came in with a melting point of 162 to 164 °C.

Take `COc1cc(NC(C)=O)c(OC)cc1C#N`: the melting point lay within 165 to 168 °C.

As to `COc1cc(-c2cn3ccccc3n2)c(F)cc1Cl`, the melting point was in the range of 139 to 141 °C.

Compound `c1nc(SCC2CCCC2)n[nH]1` registered a melting point of 48 to 55 °C.

Turning to `COc1cc(C(C)=O)ccc1OC/C=C/CN1CCC(c2noc3cc(F)ccc23)CC1`, the melting point was 57 to 59 °C.

For the compound `CCCCN(C)S(=O)(=O)C1=C(C)NC(C)=C(C(=O)OCC2CC2)C1c1cccc([N+](=O)[O-])c1` (stereo unspecified), the melting point fell in the range of 93 to 96 °C.

`COc1ccc(C=Cc2cc(Br)c(OC)c(OC)c2)cc1O` came in with a melting point of 108 to 109 °C.

With `CC(NC1=C(N=Nc2ccccc2)C(=O)SC1)c1ccccc1` (stereo unspecified), the melting point was 129 to 130 °C.

In the case of `Cc1cc(C)cc(-c2nc3ncccc3o2)c1`, the melting point was in the range of 148 to 152 °C.

Regarding `C=CCc1cc2c(c(CC=C)c1O)CCC(=O)N2c1ccc(OC)cc1`, the melting point was determined as 154 °C.

With `COc1ccc(NC=O)c(COC=O)c1`, the melting point was determined as 117 °C.

As for `CCN(CC)CCOc1ccc([N+](=O)[O-])cc1NC(C)=O`, the melting point turned out to be 117 °C.

On to `CC(=O)c1cc(F)ccc1Oc1nc2ccc(Br)cc2cc1Cc1ccccc1`, for which the melting point was in the range of 115 to 117 °C.

The compound `COc1cc(OC)c(-c2cccs2)cc1/C=C/C(=O)c1ccc(S(=O)(=O)Nc2cc(C)on2)cc1` returned a melting point of 202 to 203 °C.

As for `O=C(O)c1ccc(COc2ccccc2)nc1C(=O)O`, the melting point was found to be 270 °C.

In turn, `O=C(O)CCn1ccn(C2CCc3ccccc3C2)c1=S` (stereo unspecified) showed a melting point of 167 to 168 °C.

For the compound `NC1=NC(c2ccc(OC(F)(F)F)cc2)(c2cccc(-c3cccnc3F)c2)C2=NCCCCCN12` (stereo unspecified), the melting point fell in the range of 95 to 99 °C.

Compound `CCOc1ccc2c(c1)n(CCN1CCOCC1)c(=O)n2S(=O)(=O)c1ccc(OC)cc1OC` had a melting point of 146 to 149 °C.

The compound `CCOC(=O)c1ccc(OCCCCCCc2cccc(O)c2O)cc1` yielded a melting point of 45 to 47 °C.

`O=c1[nH]c2cc(Cl)cc(Cl)c2c(=O)n1Cc1cccc(Br)c1` registered a melting point of 161 to 165 °C.

`O=C(O)c1cccc(-c2ccc(F)c3cc(Cc4cc(F)cc(Cl)c4)sc23)c1` registered a melting point of 185 to 186 °C.

`Clc1cccc(CNc2ncc(Cc3ccncc3)c3ccccc23)c1`: the melting point lay in the range of 141 to 142 °C.

For the compound `CCOC(=O)c1cc(-c2ccc(OCc3ccccc3)cc2)n[nH]1`, the melting point was in the range of 160 to 170 °C.

Compound `CC1(C)CC(=O)c2c(C3CC3)sc(C#N)c2C1` registered a melting point of 80 to 83 °C.

The compound `CCOC(=O)c1cnc2cc(OCc3ccccc3)c(OCc3ccccc3)cn2c1=O` displayed a melting point of 175 °C.

Turning to `O=C(/C=C/[C@@H]1[C@H]2CC(=O)O[C@H]2C[C@H]1OC(=O)c1ccc(-c2ccccc2)cc1)CCc1ccccc1`, the melting point was in the range of 129 to 130 °C.

In turn, `Cc1ccc(-c2c(CO)n(CC(C)C)c(=O)c3ccc(OCc4ccccc4)cc23)cc1` yielded a melting point of 74 to 76 °C.

As for `COc1ccc2c(c1OC)CCN(CCc1ccc(NC(=O)c3cccc4c(=O)c5cccc(OC)c5[nH]c34)cc1)C2`, the melting point lay within 235 to 237 °C.

`NC(=O)N1CC(c2ccccc2)c2ccccc21` (stereo unspecified) came in with a melting point of 144 to 145 °C.

As to `COC(=O)CCCc1cc2cc(Cl)ccc2n1S(=O)(=O)c1cccc(OC)c1`, the melting point lay in the range of 107 to 109 °C.

For `CCN(c1ccc(C(C)=O)cc1)c1nc(=O)c2cccnc2s1`, the melting point was 204 °C.

Take `COc1ccc2c(c1)C(c1ccc([N+](=O)[O-])cc1)=Nn1c(C)nnc1C2`: the melting point lay in the range of 192 to 194 °C.

Take `O=C(c1ccccc1O)c1cccc2[nH]ccc12`: the melting point was 165 °C.

Consider `CC(=O)N1CCCn2nc(-c3ccncc3)c(-c3ccc(F)cc3)c21`, for which the melting point fell in the range of 184 to 185 °C.

Consider `CCN1C(=O)Cc2cc3ccccc3cc2S1(=O)=O`, for which the melting point lay in the range of 170 to 171 °C.

Consider `CN(C)CCN1C(=O)c2ccc3[nH]c4ccc(N)cc4c3c2C1=O`, for which the melting point was 217 to 218 °C.

Compound `O=C(NCC12CC3CC(CC(C3)C1)C2)c1cc(-c2cccnc2N2CCC[C@H]2C(=O)O)ccc1Cl` had a melting point of 121 to 125 °C.

For the compound `O=C(O)C1Sc2ccccc2-c2ccccc21` (stereo unspecified), the melting point is 156 to 159 °C.

Consider `CC(=O)Nc1ccc(OCCO[N+](=O)[O-])cc1`, for which the melting point was in the range of 106 to 107 °C.

As for `CCNc1cc2c(cc1Cl)CCN(C)C[C@@H]2c1ccccc1`, the melting point lay in the range of 120 to 121 °C.

Turning to `CC1(C)OC(C=Cc2cc3ccccc3s2)=CC1=O`, the melting point came to 104 °C.

Turning to `CCCC1C/C(=C\C(=O)NC2CC2)c2cc(F)ccc21` (stereo unspecified), the melting point lay within 94 to 97 °C.

Consider `C=CCN(CC=C)c1nc(NCC(=O)OC)n2oc(=O)nc2n1`, for which the melting point fell in the range of 173 to 174 °C.

With `O=C(NCCN1CCCCC1)c1ccc(-c2ccc3nnn(Cc4ccc5ncccc5c4)c3n2)cc1`, the melting point lay in the range of 104 to 107 °C.

`CN(Cc1ccc(NC(=O)C2=Cc3cc(Br)ccc3N(C3CC3)CC2)cc1)C1CCOCC1` gave a melting point of 133 to 136 °C.

For `O=C(Nc1ccnnc1)Oc1ccccc1`, the melting point is 184 to 185 °C.

Regarding `COC(=O)c1ccc2cc(C(C)n3ccnc3)ccc2c1` (stereo unspecified), the melting point lay in the range of 103 to 106 °C.
